This passage reports IC50 results from US11891365B2, “3-alkyl-4-amido-bicyclic [4,5,0] hydroxamic acids as HDAC inhibitors” (Valo Health, Inc., priority 2015, dated 2024).

This assay deals with T1, Full length human recombinant HDAC6 protein (Homo sapiens, UniProt Q9UBN7).
T1 sequence (Q9UBN7 1-1215): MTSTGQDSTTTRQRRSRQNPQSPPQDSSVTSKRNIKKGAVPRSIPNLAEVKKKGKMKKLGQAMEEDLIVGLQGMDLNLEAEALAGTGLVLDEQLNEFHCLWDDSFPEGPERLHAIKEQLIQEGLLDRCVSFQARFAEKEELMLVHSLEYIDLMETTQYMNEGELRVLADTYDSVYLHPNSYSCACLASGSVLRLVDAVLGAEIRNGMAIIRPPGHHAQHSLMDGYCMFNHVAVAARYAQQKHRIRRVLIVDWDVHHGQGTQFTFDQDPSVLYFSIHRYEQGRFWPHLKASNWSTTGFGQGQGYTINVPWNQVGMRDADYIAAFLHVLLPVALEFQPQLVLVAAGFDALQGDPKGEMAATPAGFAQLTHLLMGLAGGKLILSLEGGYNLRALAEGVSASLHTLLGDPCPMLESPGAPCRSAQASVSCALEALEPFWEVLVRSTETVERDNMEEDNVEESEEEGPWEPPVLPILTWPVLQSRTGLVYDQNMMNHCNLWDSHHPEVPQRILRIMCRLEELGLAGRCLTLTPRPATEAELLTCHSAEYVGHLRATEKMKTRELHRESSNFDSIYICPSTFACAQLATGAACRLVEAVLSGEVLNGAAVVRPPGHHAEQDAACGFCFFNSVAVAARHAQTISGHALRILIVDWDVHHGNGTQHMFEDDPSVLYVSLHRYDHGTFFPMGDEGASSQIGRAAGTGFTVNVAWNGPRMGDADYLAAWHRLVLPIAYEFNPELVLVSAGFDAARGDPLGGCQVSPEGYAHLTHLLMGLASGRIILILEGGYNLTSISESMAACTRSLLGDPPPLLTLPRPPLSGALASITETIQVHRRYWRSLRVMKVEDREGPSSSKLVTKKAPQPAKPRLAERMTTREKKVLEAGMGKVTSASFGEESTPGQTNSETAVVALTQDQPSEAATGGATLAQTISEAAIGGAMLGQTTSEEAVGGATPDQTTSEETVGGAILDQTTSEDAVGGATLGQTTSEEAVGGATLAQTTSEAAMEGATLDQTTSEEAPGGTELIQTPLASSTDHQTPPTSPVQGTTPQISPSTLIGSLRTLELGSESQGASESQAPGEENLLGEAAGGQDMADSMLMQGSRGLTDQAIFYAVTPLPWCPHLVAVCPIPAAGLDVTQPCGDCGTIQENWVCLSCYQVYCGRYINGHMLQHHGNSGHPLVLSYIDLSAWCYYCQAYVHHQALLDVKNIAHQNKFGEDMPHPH
Kind of assay: In vitro histone deacetylase assay: enzymatic HDAC6 electrophoretic mobility shift assay. It is filed as biochemical. The conditions noted are these: 1 nM enzyme, 2 μM peptide substrate RHKK(Ac)-NH2, 25° C., 12 concentrations; read-out: Inhibitory Concentration (IC50) Values against HDAC6, Activity Range. A general note: Mobility shift assays separate free from complexed probe on a gel.

`O=C(NO)c1ccc2c(c1)OCCN(C(=O)C1Cc3ccccc3C1)C2` [4-(2,3-dihydro-1H-indene-2-carbonyl)-N-hydroxy-2,3,4,5-tetrahydrobenzo[f][1,4]oxazepine-8-carboxamide]: the IC50 was no more than 0.1 µM.

For the compound `O=C(NO)c1ccc2c(c1)OCCN(C(=O)C1(c3ccccc3C(F)(F)F)CC1)C2` [N-hydroxy-4-(1-(2-(trifluoromethyl)phenyl)cyclopropane-1-carbonyl)-2,3,4,5-tetrahydrobenzo[f][1,4]oxazepine-8-carboxamide], the IC50 is no more than 0.1 µM.

Turning to `C[C@H]1COc2cc(C(=O)NO)ccc2CN1C(=O)C1COC1` [(S)-N-hydroxy-3-methyl-4-(oxetane-3-carbonyl)-2,3,4,5-tetrahydrobenzo[f][1,4]oxazepine-8-carboxamide], the IC50 was no more than 0.1 µM.

On to `COCC1(C(=O)N2Cc3ccc(C(=O)NO)cc3OC[C@@H]2C)CCC1` [(S)-N-hydroxy-4-(1-(methoxymethyl)cyclobutane-1-carbonyl)-3-methyl-2,3,4,5-tetrahydrobenzo[f][1,4]oxazepine-8-carboxamide], for which the IC50 was no more than 0.1 µM.

As to `COC1CCC(C(=O)N2Cc3ccc(C(=O)NO)cc3OC[C@@H]2C)CC1` (single isomer, unassigned), the IC50 is no more than 0.1 µM.

In the case of `O=C(NO)c1ccc2c(c1)O[C@H]1C[C@@H]2N(C(=O)C2CCOCC2)C1` [(2S,5S)-N-hydroxy-4-(tetrahydro-2H-pyran-4-carbonyl)-2,3,4,5-tetrahydro-2,5-methanobenzo[f][1,4]oxazepine-8-carboxamide], the IC50 was greater than 0.5 µM.

Regarding `CN(C)c1c(C(=O)N2CCOc3cc(C(=O)NO)ccc3C2)sc2ccccc12` [4-(3-(dimethylamino)benzo[b]thiophene-2-carbonyl)-N-hydroxy-2,3,4,5-tetrahydrobenzo[f][1,4]oxazepine-8-carboxamide], the IC50 was no more than 0.1 µM.

Take `CC1(C(=O)N2CCOc3cc(C(=O)NO)ccc3C2)CCC1` [N-hydroxy-4-(1-methylcyclobutane-1-carbonyl)-2,3,4,5-tetrahydrobenzo[f][1,4]oxazepine-8-carboxamide]: the IC50 is no more than 0.1 µM.

Turning to `CC1(C)C[C@@H]1C(=O)N1CCOc2cc(C(=O)NO)ccc2C1` [(S)-4-(2,2-dimethylcyclopropane-1-carbonyl)-N-hydroxy-2,3,4,5-tetrahydrobenzo[f][1,4]oxazepine-8-carboxamide], the IC50 is 0.1 to 0.5 µM.

Regarding `C[C@H]1COc2cc(C(=O)NO)ccc2CN1C(=O)C1(C)CCC1` [(S)-N-hydroxy-3-methyl-4-(1-methylcyclobutane-1-carbonyl)-2,3,4,5-tetrahydrobenzo[f][1,4]oxazepine-8-carboxamide], the IC50 was no more than 0.1 µM.

Turning to `CC(C)(C)OC(=O)N1CCC2(CC1)CC(C(=O)N1CCOc3cc(C(=O)NO)ccc3C1)c1ccccc12` (stereo not shown) [tert-butyl 3-(8-(hydroxycarbamoyl)-2,3,4,5-tetrahydrobenzo[f][1,4]oxazepine-4-carbonyl)-2,3-dihydrospiro[indene-1,4′-piperidine]-1′-carboxylate], the IC50 was 0.1 to 0.5 µM.

In the case of `C[C@H]1COc2cc(C(=O)NO)ccc2CN1C(=O)C1CCC(OC(F)(F)F)CC1` (single isomer, unassigned), the IC50 is no more than 0.1 µM.

In the case of `COc1ccc(CC(=O)N2CCOc3cc(C(=O)NO)ccc3C2)cc1` [N-hydroxy-4-(2-(4-methoxyphenyl)acetyl)-2,3,4,5-tetrahydrobenzo[f][1,4]oxazepine-8-carboxamide], the IC50 is greater than 0.5 µM.

For `C[C@@H]1COc2cc(C(=O)NO)ccc2CN1C=O` [(R)-4-formyl-N-hydroxy-3-methyl-2,3,4,5-tetrahydrobenzo[f][1,4]oxazepine-8-carboxamide], the IC50 was no more than 0.1 µM.

Regarding `C[C@H]1COc2cc(C(=O)NO)ccc2CN1C(=O)[C@@H]1CC2CCC1O2` (stereo partly drawn) [(3S)-4-((2R)-7-oxabicyclo[2.2.1]heptane-2-carbonyl)-N-hydroxy-3-methyl-2,3,4,5-tetrahydrobenzo[f][1,4]oxazepine-8-carboxamide], the IC50 was no more than 0.1 µM.

Turning to `C[C@H]1COc2cc(C(=O)NO)ccc2CN1C(=O)C1CC(Oc2ccccc2)C1` (single isomer, unassigned), the IC50 was no more than 0.1 µM.

As to `CC(=O)N1CCC(C(=O)N2CCOc3cc(C(=O)NO)ccc3C2)C1` (stereo not shown) [4-(1-acetylpyrrolidine-3-carbonyl)-N-hydroxy-2,3,4,5-tetrahydrobenzo[f][1,4]oxazepine-8-carboxamide], the IC50 is 0.1 to 0.5 µM.

`O=C(NO)c1ccc2c(c1)OCCN(C(=O)CN1CCS(=O)(=O)CC1)C2` [4-(2-(1,1-dioxidothiomorpholino)acetyl)-N-hydroxy-2,3,4,5-tetrahydrobenzo[f][1,4]oxazepine-8-carboxamide]: the IC50 is greater than 0.5 µM.

`COCC(C)(C)C(=O)N1CCOc2cc(C(=O)NO)ccc2C1` [N-hydroxy-4-(3-methoxy-2,2-dimethylpropanoyl)-2,3,4,5-tetrahydrobenzo[f][1,4]oxazepine-8-carboxamide]: the IC50 was no more than 0.1 µM.

Regarding `O=C(NO)c1ccc2c(c1)OCCN(C(=O)C1CCC1)C2` [4-(cyclobutanecarbonyl)-N-hydroxy-2,3,4,5-tetrahydrobenzo[f][1,4]oxazepine-8-carboxamide], the IC50 was no more than 0.1 µM.

For the compound `C[C@H]1COc2cc(C(=O)NO)ccc2CN1C(=O)[C@H]1CCOC1` [(S)-N-hydroxy-3-methyl-4-((S)-tetrahydrofuran-3-carbonyl)-2,3,4,5-tetrahydrobenzo[f][1,4]oxazepine-8-carboxamide], the IC50 was no more than 0.1 µM.

With `O=C(NO)c1ccc2c(c1)OCCN(C(=O)C(Oc1ccccc1)c1ccccc1)C2` (stereo not shown) [N-hydroxy-4-(2-phenoxy-2-phenylacetyl)-2,3,4,5-tetrahydrobenzo[f][1,4]oxazepine-8-carboxamide], the IC50 lay within 0.1 to 0.5 µM.

Regarding `COc1ccc2[nH]cc(CC(=O)N3CCOc4cc(C(=O)NO)ccc4C3)c2c1` [N-hydroxy-4-(2-(5-methoxy-1H-indol-3-yl)acetyl)-2,3,4,5-tetrahydrobenzo[f][1,4]oxazepine-8-carboxamide], the IC50 was greater than 0.5 µM.

For the compound `CC(C)[C@H]1c2ccc(C(=O)NO)cc2OCCN1C(=O)C1CCOCC1` [(S)-N-hydroxy-5-isopropyl-4-(tetrahydro-2H-pyran-4-carbonyl)-2,3,4,5-tetrahydrobenzo[f][1,4]oxazepine-8-carboxamide], the IC50 was greater than 0.5 µM.

With `C[C@H]1COc2cc(C(=O)NO)ccc2CN1C(=O)[C@@H]1CCOC1` [(S)-N-hydroxy-3-methyl-4-((R)-tetrahydrofuran-3-carbonyl)-2,3,4,5-tetrahydrobenzo[f][1,4]oxazepine-8-carboxamide], the IC50 is no more than 0.1 µM.

`COc1ccc(C(=O)N2CC(=O)Nc3ccc(C(=O)NO)cc3C2)cc1` [N-hydroxy-4-(4-methoxybenzoyl)-2-oxo-2,3,4,5-tetrahydro-1H-benzo[e][1,4]diazepine-7-carboxamide]: the IC50 was greater than 0.5 µM.

Consider `CC1(C(=O)N2Cc3ccc(C(=O)NO)cc3O[C@H](c3ccccc3)C2)CCC1` [(R)-N-hydroxy-4-(1-methylcyclobutane-1-carbonyl)-2-phenyl-2,3,4,5-tetrahydrobenzo[f][1,4]oxazepine-8-carboxamide], for which the IC50 was in the range of 0.1 to 0.5 µM.

Turning to `Cc1nc(CC(=O)N2CCOc3cc(C(=O)NO)ccc3C2)cs1` [N-hydroxy-4-(2-(2-methylthiazol-4-yl)acetyl)-2,3,4,5-tetrahydrobenzo[f][1,4]oxazepine-8-carboxamide], the IC50 fell in the range of 0.1 to 0.5 µM.

Turning to `O=C(NO)c1ccc2c(c1)OCCN(C(=O)C1Oc3ccccc3C13CCNCC3)C2` (stereo not shown) [N-hydroxy-4-(2H-spiro[benzofuran-3,4′-piperidine]-2-carbonyl)-2,3,4,5-tetrahydrobenzo[f][1,4]oxazepine-8-carboxamide], the IC50 lay in the range of 0.1 to 0.5 µM.

As for `O=C(NO)c1ccc2c(c1)OCCN(C(=O)C1CCOC1)C2` (stereo not shown) [N-hydroxy-4-(tetrahydrofuran-3-carbonyl)-2,3,4,5-tetrahydrobenzo[f][1,4]oxazepine-8-carboxamide], the IC50 was no more than 0.1 µM.

Regarding `C[C@H]1COc2cc(C(=O)NO)ccc2CN1C(=O)CC(C)(C)O` [(S)-N-hydroxy-4-(3-hydroxy-3-methylbutanoyl)-3-methyl-2,3,4,5-tetrahydrobenzo[f][1,4]oxazepine-8-carboxamide], the IC50 is no more than 0.1 µM.
